From patent US20250084078A1, “FUSED RING-SUBSTITUTED SIX-MEMBERED HETEROCYCLIC COMPOUND, AND PREPARATION METHOD THEREFOR AND USE THEREOF” (GENFLEFT THERAPEUTICS (SHANGHAI) INC., priority 2022, published 2025)

Biological target: HPK1 (Homo sapiens, UniProt Q92918)
Experiment: SLP76 phosphorylation assay (intracellular HPK1 inhibitory activity, p-SLP76 S376 ELISA in Jurkat cells)
Conditions: p-SLP76 IC50, Jurkat, Clone E6-1 cells; 1 h compound pre-incubation; anti-CD3 beads stimulation 20 min; Phospho-SLP-76 (Ser376) ELISA
Experimental: SLP76 Phosphorylation Assay
Intracellular HPK1 inhibitory activity was tested by the detection of SLP76 phosphorylation at S376.
Preparation of 1000× drug stock plate: a 1000× compound stock plate was prepared. […] The compound stock plate was sealed with a sealing film and stored in a −20° C. refrigerator for later use.
Preparation of Beads wash buffer: 0.1 mL FBS and 0.4 mL 0.5 M EDTA (with a final concentration of 2 mM) were added to 100 mL PBS and stored in a 4° C. refrigerator for later use.
100× Protease Inhibitor Cocktail in 1/20 total volume was added and stored on wet ice for later use. The buffer was ready to use.
Cell inoculation and dosing: the 1000× drug stock plate was taken and melted at room temperature in the dark. […] Jurkat cells in the logarithmic growth phase were selected and collected. […] The cells were inoculated into a 96-well plate (the volume was 90 μL per well), and a blank control well (without cells inoculation, and in which 110 μL of medium was added) was set. 10 μL of a drug-containing culture medium (10×) was transferred from the 10× drug intermediate plate into the 96-well cell plate (with a final concentration of 0.1% DMSO), and set a DMSO control group (in which 0.1% DMSO was added to the treated cells), a stimulated control group (in which 10 μL of culture medium was added to treat cells) and an unstimulated group (in which 10 μL of culture medium was added to treat cells). The wells were duplicated, gently patted, mixed, and then placed into a 5% CO2 incubator at 37° C. for 1 h.
Anti-CD3 beads stimulation: Dynabeads anti-human CD3 was taken, shaken, and mixed for 60 s. The required volume of beads was pipetted, and an equal volume or at least 1 mL of washing solution was added to wash once. Fresh complete medium was then added to resuspend and adjust the density of the beads to 4×10^7/mL, and the beads were placed on ice for later use. At the end of drug pre-incubation, the cell culture plate was taken out. 10 μL Dynabeads anti-human CD3 was added to each well to treat the cells, and 10 μL the culture medium was added to the unstimulated group. The cell culture plate was shaken to mix well at 2500 rpm for 10 s, and then placed into a 5% CO2 incubator at 37° C. and continued to culture for 20 min.
Detection of p-SLP76 protein level: PathScan Phospho-SLP-76 (Ser376) Sandwich ELISA Kit was applied to detect p-SLP76 protein level. At the end of the Anti-CD3 beads stimulation, the cell culture plate was removed from the incubator. […] After lysis, the cell culture plate was centrifuged at 4° C., 400×g for 5 min. 25 μL of sample and 75 μL of sample diluent were added to each well, and the plate was placed in a 5% CO2 incubator at 37° C. for 2 h. The subsequent detection steps were carried out following the kit instructions, and the absorbance (OD value) of each well was read at 450 nm by a microplate reader.

HPK1, sequence (Q92918 whole entry): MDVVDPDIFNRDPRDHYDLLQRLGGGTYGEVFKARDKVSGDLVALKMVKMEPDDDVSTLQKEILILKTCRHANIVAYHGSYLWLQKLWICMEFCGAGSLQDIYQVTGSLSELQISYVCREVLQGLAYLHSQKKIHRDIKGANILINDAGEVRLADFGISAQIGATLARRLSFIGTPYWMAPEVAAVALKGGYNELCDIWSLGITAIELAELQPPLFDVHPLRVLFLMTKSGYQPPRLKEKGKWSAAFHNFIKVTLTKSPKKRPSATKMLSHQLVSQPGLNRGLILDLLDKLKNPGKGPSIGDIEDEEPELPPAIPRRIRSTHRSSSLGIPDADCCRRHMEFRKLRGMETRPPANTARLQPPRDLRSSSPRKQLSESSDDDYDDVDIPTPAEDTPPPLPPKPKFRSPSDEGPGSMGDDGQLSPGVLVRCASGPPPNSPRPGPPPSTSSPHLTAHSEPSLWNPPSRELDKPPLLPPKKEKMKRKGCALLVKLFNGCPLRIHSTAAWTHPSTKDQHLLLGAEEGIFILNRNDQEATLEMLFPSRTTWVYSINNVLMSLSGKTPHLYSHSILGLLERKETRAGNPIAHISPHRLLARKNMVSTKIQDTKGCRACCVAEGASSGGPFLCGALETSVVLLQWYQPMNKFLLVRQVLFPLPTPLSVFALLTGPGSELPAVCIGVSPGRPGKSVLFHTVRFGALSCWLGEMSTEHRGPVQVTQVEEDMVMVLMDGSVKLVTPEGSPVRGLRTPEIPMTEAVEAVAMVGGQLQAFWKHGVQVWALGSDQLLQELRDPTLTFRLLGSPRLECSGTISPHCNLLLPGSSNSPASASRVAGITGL

| SMILES | IC50 |
| --- | --- |
| O=C(N1CCOCC1)N1CCc2cc(-c3cnc4[nH]cc(Cl)c4c3)cc([C@@H]3COCCN3)c2C1 [Compound Z483, (R)-(6-(3-chloro-1H-pyrrolo[2,3-b]pyridin-5-yl)-8-(morpholin-3-yl)-3,4-dihydroisoquinolin-2(1H)-yl)(morpholine)methanone] | 112 nM |
| O=C(N1CCc2cc(-c3cnc4[nH]cc(Cl)c4n3)cc([C@@H]3COCCN3)c2C1)N1C[C@H]2CC[C@@H]1CO2 (single isomer, unassigned) [Compound Z591] | 275 nM |
| O=C(N1CCc2cc(-c3cnc4[nH]cc(F)c4n3)cc([C@@H]3COCCN3)c2C1)N1CC2CCC(C1)O2 [Compound Z522, (8-oxa-3-azabicyclo[3.2.1]octan-3-yl)(6-(7-fluoro-5H-pyrrolo[2,3-b]pyrazin-2-yl)-8-((R)-morpholin-3-yl)-3,4-dihydroisoquinolin-2(1H)-yl)methanone] | 110 nM |
| Cc1ncc(C(=O)N2CCc3cc(-c4cnc5[nH]cc(C)c5c4)cc([C@@H]4COCCN4)c3C2)cn1 [Compound Z468, (R)-(2-methylpyrimidin-5-yl)-[6-(3-methyl-1H-pyrrolo[2,3-b]pyridin-5-yl)-8-[morpholin-3-yl]-3,4-dihydroisoquinolin-2(1H)-yl]methanone] | 340 nM |
| CC(C)(O)C(=O)N1CCc2cc(-c3cnc4[nH]cc(Cl)c4n3)cc([C@@H]3COCCN3)c2C1 [Compound Z465, (R)-3-(6-(7-chloro-5H-pyrrolo[2,3-b]pyrazin-2-yl)-2-(2-hydroxy-2-methylpropanoyl)-1,2,3,4-tetrahydroisoquinolin-8-yl)morpholine] | 144 nM |
| Cc1c[nH]c2ncc(-c3cc4c(c([C@@H]5COCCN5)c3)CN(C(=O)[C@H]3CCOC3)CC4)nc12 [Compound Z630, (6-(7-methyl-5H-pyrrolo[2,3-b]pyrazin-2-yl)-8-((R)-morpholin-3-yl)-3,4-dihydroisoquinolin-2(1H)-yl)((S)-tetrahydrofuran-3-yl)methanone] | 247 nM |
| C[C@H]1COCCN1C(=O)N1CCc2cc(-c3cnc4[nH]cc(Cl)c4c3)cc([C@@H]3COCCN3)c2C1 [Compound Z613] | 136 nM |
| CCc1c[nH]c2ncc(-c3cc4c(c([C@@H]5COCCN5)c3)CN(C(=O)C(C)(C)O)CC4)nc12 [Compound Z540, (R)-1-(6-(7-ethyl-5H-pyrrolo[2,3-b]pyrazin-2-yl)-8-(morpholin-3-yl)-3,4-dihydroisoquinolin-2(1H)-yl)-2-hydroxy-2-methylpropan-1-one] | 524 nM |
| C=Cc1c[nH]c2ncc(-c3cc4c(c([C@@H]5COCCN5)c3)CN(C(=O)C(C)(C)O)CC4)cc12 [Compound Z508, (R)-2-hydroxy-2-methyl-1-(8-(morpholin-3-yl)-6-(3-vinyl-1H-pyrrolo[2,3-b]pyridin-5-yl)-3,4-dihydroisoquinolin-2(1H)-yl)propan-1-one] | 304 nM |
| COC1CCN(C(=O)N2CCc3cc(-c4cnc5[nH]cc(Cl)c5c4)cc([C@@H]4COCCN4)c3C2)CC1 [Compound Z589, (R)-(6-(3-chloro-1H-pyrrolo[2,3-b]pyridin-5-yl)-8-(morpholin-3-yl)-3,4-dihydroisoquinolin-2(1H)-yl)(4-methoxypiperidin-1-yl)methanone] | 246 nM |
| C[C@@H]1COCCN1C(=O)N1CCc2cc(-c3cnc4[nH]cc(Cl)c4c3)cc([C@@H]3COCCN3)c2C1 [Compound Z500, (6-(3-chloro-1H-pyrrolo[2,3-b]pyridin-5-yl)-8-((R)-morpholin-3-yl)-3,4-dihydroisoquinolin-2(1H)-yl)((R)-3-methylmorpholine)methanone] | 143 nM |
| Cc1c[nH]c2ncc(-c3cc4c(c([C@@H]5COCCN5)c3)CN(C(=O)c3cnn(C(C)C)c3)CC4)cc12 [Compound Z477] | 422 nM |
| CC(=O)c1c[nH]c2ncc(-c3cc4c(c([C@@H]5COCCN5)c3)CN(C(=O)C(C)(C)O)CC4)cc12 [Compound Z593, (R)-1-(6-(3-acetyl-1H-pyrrolo[2,3-b]pyridin-5-yl)-8-(morpholin-3-yl)-3,4-dihydroisoquinolin-2(1H)-yl)-2-hydroxy-2-methylpropan-1-one] | 317 nM |
| C[C@H]1COCCN1C(=O)N1CCc2cc(-c3cnc4[nH]cc(Cl)c4n3)cc([C@@H]3COCCN3)c2C1 [Compound Z573] | 122 nM |
| Cc1cc(-c2c[nH]c3ncc(-c4cc5c(c([C@@H]6COCCN6)c4)CN(C(=O)C(C)(C)O)CC5)cc23)c(C)cn1 [Compound Z545, (R)-1-(6-(3-(2,5-dimethylpyridin-4-yl)-1H-pyrrolo[2,3-b]pyridin-5-yl)-8-(morpholin-3-yl)-3,4-dihydroisoquinolin-2(1H)-yl)-2-hydroxy-2-methylpropan-1-one] | 560 nM |

Now from value to molecule:

| IC50 | SMILES |
| --- | --- |
| 180 nM | Cc1c[nH]c2ncc(-c3cc4c(c([C@@H]5COCCN5)c3)CN(C(=O)N3C5CCC3CN(C)C5)CC4)cc12 [Compound Z471, (6-(3-methyl-1H-pyrrolo[2,3-b]pyridin-5-yl)-8-((R)-morpholin-3-yl)-3,4-dihydroisoquinolin-2(1H)-yl)(3-methyl-3,8-diazabicyclo[3.2.1]octan-8-yl)methanone] |
| 161 nM | Cc1c[nH]c2ncc(-c3cc4c(c([C@@H]5COCCN5)c3)CN(C(=O)N3CC5CC(C3)O5)CC4)cc12 [Compound Z516, (6-oxa-3-azabicyclo[3.1.1]heptan-3-yl)-(6-(3-methyl-1H-pyrrolo[2,3-b]pyridin-5-yl)-8((R)-morpholin-3-yl)-3,4-dihydroisoquinolin-2(1H)-yl)methanone] |
| 173 nM | N#Cc1c[nH]c2ncc(-c3cc4c(c([C@@H]5COCCN5)c3)CN(C(=O)N3CC5CCC(C3)O5)CC4)cc12 [Compound Z515, 5-(2-(8-oxa-3-azabicyclo[3.2.1]octane-3-carbonyl)-8-((R)-morpholin-3-yl)-1,2,3,4-tetrahydroisoquinolin-6-yl)-1H-pyrrolo[2,3-b]pyridine-3-carbonitrile] |
| 329 nM | CO[C@@H]1CCN(C(=O)N2CCc3cc(-c4cnc5[nH]cc(C)c5c4)cc([C@@H]4COCCN4)c3C2)C1 [Compound Z478] |
| 236 nM | O=C(C1CCOCC1)N1CCc2cc(-c3cnc4[nH]cc(Cl)c4c3)cc([C@@H]3COCCN3)c2C1 [Compound Z543, (R)-[6-(3-chloro-1H-pyrrolo[2,3-b]pyridin-5-yl)-8-(morpholin-3-yl)-3,4-dihydroisoquinolin-2(1H)-yl](tetrahydro-2H-pyran-4-yl)methanone] |
| 147 nM | Cc1c[nH]c2ncc(-c3cc4c(c([C@@H]5COCCN5)c3)CN(C(=O)N3CCOC5CC53)CC4)cc12 (stereo partly drawn) [Compound Z562, (2-oxa-5-azabicyclo[4.1.0]heptan-5-yl)(6-(3-methyl-1H-pyrrolo[2,3-b]pyridin-5-yl)-8-((R)-morpholin-3-yl)-3,4-dihydroisoquinolin-2(1H)-yl)methanone] |
| 148 nM | Cc1c[nH]c2ncc(-c3cc4c(c([C@@H]5COCCN5)c3)CN(C(=O)N3CCOC(C)(C)C3)CC4)cc12 [Compound Z453, (R)-(2,2-dimethylmorpholine)(6-(3-methyl-1H-pyrrolo[2,3-b]pyridin-5-yl)-8-(morpholin-3-yl)-3,4-dihydroisoquinolin-2(1H)-yl)methanone] |
| 315 nM | Cc1c[nH]c2ncc(-c3cc4c(c([C@@H]5COCCN5)c3)CN(C(=O)c3cnn(C5CC5)c3)CC4)cc12 [Compound Z456] |
| 127 nM | Cc1c[nH]c2ncc(-c3cc4c(c([C@@H]5COCCN5)c3)CN(C(=O)N3CC(C)OCC3C)CC4)cc12 (stereo partly drawn) [Compound Z458, (2,5-dimethylmorpholine)(6-(3-methyl-1H-pyrrolo[2,3-b]pyridin-5-yl)-8-((R)-morpholin-3-yl)-3,4-dihydroisoquinolin-2(1H)-yl)methanone] |
| 311 nM | Cc1c[nH]c2ncc(-c3cc4c(c([C@@H]5COCCN5)c3)CN(C(=O)N3CCN(C)CC3)CC4)cc12 [Compound Z482, (R)-(6-(3-methyl-1H-pyrrolo[2,3-b]pyridin-5-yl)-8-(morpholin-3-yl)-3,4-dihydroisoquinolin-2(1H)-yl)(4-methylpiperazin-1-yl)methanone] |
| 118 nM | Cc1c[nH]c2ncc(-c3cc4c(c([C@@H]5COCCN5)c3)CN(C(=O)N3CCOC[C@H]3C)CC4)cc12 [Compound Z480, (6-(3-methyl-1H-pyrrolo[2,3-b]pyridin-5-yl)-8-((R)-morpholin-3-yl)-3,4-dihydroisoquinolin-2(1H)-yl)((R)-3-methylmorpholino)methanone] |
| 294 nM | Cc1c[nH]c2ncc(-c3cc4c(c([C@@H]5COCCN5)c3)CN(C(=O)N3C[C@H]5CC[C@@H]3CO5)CC4)cc12 (single isomer, unassigned) [Compound Z643] |
| 232 nM | Cc1c[nH]c2ncc(-c3cc4c(c([C@@H]5COCCN5)c3)CN(C(=O)C3CC5CCC(C3)O5)CC4)cc12 (stereo partly drawn) [Compound Z504, (8-oxabicyclo[3.2.1]octan-3-yl)(6-(3-methyl-1H-pyrrolo[2,3-b]pyridin-5-yl)-8[(R)-morpholin-3-yl)-3,4-dihydroisoquinolin-2(1H)-yl)-methanone] |
| 147 nM | Cc1c[nH]c2ncc(-c3cc4c(c([C@@H]5COCCN5)c3)CN(C(=O)N3CCOCC3(C)C)CC4)cc12 [Compound Z479, (R)-(3,3-dimethylmorpholine)(6-(3-methyl-1H-pyrrolo[2,3-b]pyridin-5-yl)-8-(morpholin-3-yl)-3,4-dihydroisoquinolin-2(1H)-yl)methanone] |
| 160 nM | COc1c[nH]c2ncc(-c3cc4c(c([C@@H]5COCCN5)c3)CN(C(=O)N3C5CCC3COC5)CC4)cc12 [Compound Z582] |
| 184 nM | C[C@@H]1CN(C(=O)N2CCc3cc(-c4cnc5[nH]cc(Cl)c5c4)cc([C@@H]4COCCN4)c3C2)C[C@@H](C)O1 [Compound Z599, (6-(3-chloro-1H-pyrrolo[2,3-b]pyridin-5-yl)-8-((R)-morpholin-3-yl)-3,4-dihydroisoquinolin-2(1H)-yl)((2R,6R)-2,6-dimethylmorpholinyl)methanone] |
| 195 nM | Cc1c[nH]c2ncc(-c3cc4c(c([C@@H]5COCCN5)c3)CN(C3CCN(C)CC3)CC4)cc12 [Compound Z498, (R)-3-(6-(3-methyl-1H-pyrrolo[2,3-b]pyridin-5-yl)-2-(1-methylpiperidin-4-yl)-1,2,3,4-tetrahydroisoquinolin-8-yl)morpholine] |
